Experiment: Potentiometric binding isotherms of surfactants to polyethylene oxide-block-poly(sodium methacrylate)
Assay type: physicochemical
Settings: FIG. 1
Source text: While not wishing to be bound by any particular theory, it is believed that the above-described surfactants and block copolymers of opposite charge form stable complexes due to cooperative binding. (See, e.g., Goddard, In Interactions of Surfactants with Polymers and Proteins. Goddard and Ananthapadmanabhan, Eds., pp. 171 et seq., CRC Press, Boca Raton, Ann Arbor, London, Tokyo, 1992). Cooperative binding occurs in the sense that binding of surfactant molecules to the block copolymer is enhanced by the presence of other molecules of the same or a different surfactant already bound to the same copolymer. According to the cooperative binding mechanism which is believed to underlie this invention, surfactant binds electrostatically to the oppositely charged P-type segments of the block copolymer to form supramolecular complexes. […]
B. The binding isotherms of cetylpyridinium bromide (Sigma Co.) and dodecylpyridinium bromide (Sigma Co.) with the polyethylene oxide-block-poly(sodium methacrylate) copolymer were determined potentiometrically by using the following ion-selective electrode: Ag/AgCl | 1 M NH4NO3 agar bridge | reference solution (surfactant, 2.5·10^−4 M) | PVC membrane | sample solution | 1 M NH4NO3 agar bridge | Ag/AgCl. […] The electromotive force (emf) of the cell was measured with a digital Radiometer pHM-83 pH-meter. […]

CCCCCCCCCCCC[n+]1ccccc1.[Br-] [dodecylpyridinium bromide]
stability of the complex with the block copolymer relative to cetylpyridinium bromide: decreases the stability of the complex more than ten-fold
